Measured values from PMC9225045, “Purification and Characterization of a Novel α-L-Rhamnosidase from Papiliotrema laurentii ZJU-L07 and Its Application in Production of Icariin from Epimedin C” (Journal of Fungi, 2022).
Like-named read-outs stand apart in the source and are kept apart here.

Tests used:
[1] = test system: T1, α-L-rhamnosidase from P. laurentii ZJU-L07; details: 1.0-5.0 mM substrate; pH and temperature of the kinetic assay not stated separately
T1 construct: gene EC 3.2.1.40
Source text: Lineweaver-Burk; HPLC for epimedin C and icariin on α-L-rhamnosidase from P. laurentii ZJU-L07 | When epimedin C was used as a nature substrate to determine the kinetic parameters

[2] = test system: T2, α-L-rhamnosidase from P. laurentii ZJU-L07; experiment: p-nitrophenol release at […] nm, Lineweaver-Burk; type: biochemical, Papiliotrema laurentii; details: pH 7.0 citric acid-Na2HPO4, 55 °C (standard assay); 2.0-10.0 mM substrate
T2 construct: gene EC 3.2.1.40; native intracellular enzyme purified from cells of the soil isolate (strain mutagenized by gamma rays and nitrosoguanidine); 100 kDa by SDS-PAGE

SMILES | Km [1] [µM] | Km [2] [µM]
COc1ccc(-c2oc3c(CC=C(C)C)c(O[C@@H]4O[C@H](CO)[C@@H](O)[C@H](O)[C@H]4O)cc(O)c3c(=O)c2O[C@@H]2O[C@@H](C)[C@H](O)[C@@H](O)[C@H]2O[C@@H]2O[C@@H](C)[C@H](O)[C@@H](O)[C@H]2O)cc1 [epimedin C] | 3280 | –
C[C@@H]1O[C@@H](Oc2ccc([N+](=O)[O-])cc2)[C@H](O)[C@H](O)[C@H]1O [p-nitrophenyl-α-L-rhamnopyranoside] | – | 1380
